Values joined by “and” are separate entries in the source; they are usually repeats but may differ in a detail not shown here. Equal entries are not always repeated. Toxic doses and inconclusive results are not listed.
Test system: BDF1 mice, P388 leukemia ip, median survival T/C
Test: NCI In Vivo Anticancer Drug Screen. Data for tumor model P388 Leukemia (intraperitoneal) in B6D2F1 (BDF1) mice
Settings: endpoint: median survival time, higher = longer survival
Summary of the method: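 T/C = treated-group survival ÷ vehicle-control survival; tumour transplanted into mice before dosing.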

COC(=O)C[C@](O)(CCCC(C)(C)O)C(=O)O[C@@H]1C(OC)=C[C@]23CCCN2CCc2cc4c(cc2[C@H]13)OCO4
T/C (dose: 0.06 mg/kg/injection, schedule: Q01DX010 (ip), vehicle: saline): 154 % of control | T/C (dose: 0.13 mg/kg/injection, schedule: Q01DX010 (ip), vehicle: saline): 172 % of control | T/C (dose: 0.25 mg/kg/injection, schedule: Q01DX009 (ip), vehicle: acid diluted with saline): 180 % of control | T/C (dose: 0.25 mg/kg/injection, schedule: Q01DX009 (ip), vehicle: water): 233 % of control and 244 % of control | T/C (dose: 0.25 mg/kg/injection, schedule: Q01DX010 (ip), vehicle: saline): 181 % of control | T/C (dose: 0.25 mg/kg/injection, schedule: Q03HX016 (ip), vehicle: acid diluted with saline): 160 % of control | T/C (dose: 0.5 mg/kg/injection, schedule: Q01DX006 (iv), vehicle: acid diluted with saline): 115 % of control | T/C (dose: 0.5 mg/kg/injection, schedule: Q01DX009 (ip), vehicle: acid diluted with saline): 190 % of control | T/C (dose: 0.5 mg/kg/injection, schedule: Q01DX009 (ip), vehicle: saline): 240 % of control and 100 % of control | T/C (dose: 0.5 mg/kg/injection, schedule: Q01DX009 (ip), vehicle: water): 272 % of control and 300 % of control | T/C (dose: 0.5 mg/kg/injection, schedule: Q01DX009 (oral), vehicle: acid diluted with saline): 115 % of control | T/C (dose: 0.5 mg/kg/injection, schedule: Q01DX009 (oral), vehicle: saline): 155 % of control | T/C (dose: 0.5 mg/kg/injection, schedule: Q01DX009 (sc), vehicle: saline): 105 % of control | T/C (dose: 0.5 mg/kg/injection, schedule: Q01DX010 (ip), vehicle: saline): 245 % of control and 215 % of control | T/C (dose: 0.5 mg/kg/injection, schedule: Q03HX016 (ip), vehicle: acid diluted with saline): 180 % of control | T/C (dose: 1.0 mg/kg/injection, schedule: Q01DX006 (iv), vehicle: acid diluted with saline): 160 % of control | T/C (dose: 1.0 mg/kg/injection, schedule: Q01DX009 (ip), vehicle: acid diluted with saline): 225 % of control and 218 % of control | T/C (dose: 1.0 mg/kg/injection, schedule: Q01DX009 (ip), vehicle: saline): 245 % of control and 100 % of control | T/C (dose: 1.0 mg/kg/injection, schedule: Q01DX009 (ip), vehicle: water): 327 % of control and 338 % of control | T/C (dose: 1.0 mg/kg/injection, schedule: Q01DX009 (oral), vehicle: acid diluted with saline): 115 % of control | T/C (dose: 1.0 mg/kg/injection, schedule: Q01DX009 (oral), vehicle: saline): 240 % of control | T/C (dose: 1.0 mg/kg/injection, schedule: Q01DX009 (sc), vehicle: acid diluted with saline): 170 % of control | T/C (dose: 1.0 mg/kg/injection, schedule: Q01DX010 (ip), vehicle: saline): 120 % of control | T/C (dose: 1.0 mg/kg/injection, schedule: Q03HX008 (ip), vehicle: acid diluted with saline): 150 % of control | T/C (dose: 1.0 mg/kg/injection, schedule: Q03HX016 (ip), vehicle: acid diluted with saline): 100 % of control | T/C (dose: 2.0 mg/kg/injection, schedule: Q01DX001 (ip), vehicle: acid diluted with saline): 120 % of control | T/C (dose: 2.0 mg/kg/injection, schedule: Q01DX001 (iv), vehicle: acid diluted with saline): 110 % of control | T/C (dose: 2.0 mg/kg/injection, schedule: Q01DX001 (oral), vehicle: acid diluted with saline): 110 % of control | T/C (dose: 2.0 mg/kg/injection, schedule: Q01DX001 (sc), vehicle: acid diluted with saline): 110 % of control | T/C (dose: 2.0 mg/kg/injection, schedule: Q01DX006 (iv), vehicle: acid diluted with saline): 200 % of control | T/C (dose: 2.0 mg/kg/injection, schedule: Q01DX009 (ip), vehicle: acid diluted with saline): 240 % of control and 254 % of control | T/C (dose: 2.0 mg/kg/injection, schedule: Q01DX009 (ip), vehicle: water): 88 % of control | T/C (dose: 2.0 mg/kg/injection, schedule: Q01DX009 (sc), vehicle: acid diluted with saline): 235 % of control | T/C (dose: 2.0 mg/kg/injection, schedule: Q01DX009 (sc), vehicle: saline): 205 % of control | T/C (dose: 2.0 mg/kg/injection, schedule: Q04DX003 (ip), vehicle: acid diluted with saline): 155 % of control and 168 % of control and 170 % of control | T/C (dose: 2.0 mg/kg/injection, schedule: Q04DX003 (ip), vehicle: saline): 173 % of control | T/C (dose: 3.33 mg/kg/injection, schedule: Q04DX003 (ip), vehicle: acid diluted with saline): 112 % of control | T/C (dose: 4.0 mg/kg/injection, schedule: Q01DX001 (ip), vehicle: acid diluted with saline): 115 % of control | T/C (dose: 4.0 mg/kg/injection, schedule: Q01DX001 (iv), vehicle: acid diluted with saline): 110 % of control | T/C (dose: 4.0 mg/kg/injection, schedule: Q01DX001 (oral), vehicle: acid diluted with saline): 110 % of control | T/C (dose: 4.0 mg/kg/injection, schedule: Q01DX001 (sc), vehicle: acid diluted with saline): 120 % of control | T/C (dose: 4.0 mg/kg/injection, schedule: Q01DX006 (iv), vehicle: acid diluted with saline): 120 % of control | T/C (dose: 4.0 mg/kg/injection, schedule: Q01DX009 (ip), vehicle: acid diluted with saline): 190 % of control | T/C (dose: 4.0 mg/kg/injection, schedule: Q01DX009 (ip), vehicle: saline): 100 % of control | T/C (dose: 4.0 mg/kg/injection, schedule: Q01DX009 (sc), vehicle: saline): 115 % of control | T/C (dose: 4.0 mg/kg/injection, schedule: Q04DX003 (ip), vehicle: acid diluted with saline): 110 % of control | T/C (dose: 8.0 mg/kg/injection, schedule: Q01DX009 (ip), vehicle: saline): 104 % of control | T/C (dose: 62.5 micrograms/kg/injection, schedule: Q01DX009 (ip), vehicle: saline): 154 % of control | T/C (dose: 125.0 micrograms/kg/injection, schedule: Q01DX009 (ip), vehicle: saline): 154 % of control | T/C (dose: 125.0 micrograms/kg/injection, schedule: Q03HX024 (ip), vehicle: acid diluted with saline): 170 % of control | T/C (dose: 250.0 micrograms/kg/injection, schedule: Q01DX009 (ip), vehicle: saline): 163 % of control | T/C (dose: 250.0 micrograms/kg/injection, schedule: Q03HX024 (ip), vehicle: acid diluted with saline): 190 % of control | T/C (dose: 500.0 micrograms/kg/injection, schedule: Q01DX009 (ip), vehicle: saline): 190 % of control | T/C (dose: 500.0 micrograms/kg/injection, schedule: Q03HX024 (ip), vehicle: acid diluted with saline): 215 % of control | T/C (dose: 1000.0 micrograms/kg/injection, schedule: Q01DX009 (ip), vehicle: saline): 213 % of control

— PubChem BioAssay AID328 (DTP/NCI, 2004)
